System: IL-1β
Experiment: RT-PCR of IL-1β mRNA in LPS-stimulated THP-1 cells
Format: cell-based
Details: 25 μM, LPS stimulation
Experimental: THP-1 cells were obtained from ATCC® TIB202. THP-1 cells were maintained in RPMI1640 (Gibco® RPMI 1640) supplemented with 10% fetal bovine serum. DMEM (#11095) and fetal bovine serum (low endotoxin grade) (#10437) was obtained from Invitrogen.
Compounds II-3 and I-1 were first solubilized in 100% DMSO as 50 mM solution, and then diluted 1 to 200 in 1% BSA as a 10× stock solution of […], and series stock dilution (1 to 2 dilution) were carried out as needed. The 10× stock solution were added to the cell media and cells were incubated for 24 hours at 37° C. For LPS stimulation in THP-1 cells, compounds were added to the cell media for 6 hours at and at the end of 4 hours, 50 μg/ml final concentration of LPS (Sigma L3024) was added and cells were incubated for 2 hours. […] The total RNA was harvested, and the relative mRNA expression levels were assessed via RT-PCR with HPRT as the internal control. […] Significance was determined by student's t-test in comparison to control.
Total RNA was collected using RNeasy Plus Mini Kit (Qiagen #74136) and cDNA generated using SuperScriptIII (Invitrogen #18080-044) with random hexamers following the manufacturer's protocol. Relative mRNA expression levels were determined using TaqMan probes (Applied Biosystems, using the recommended best primer pairs) with HPRT (hypoxanthine phosphoryltransferase) as the internal control. […]

CC/C=C\C/C=C\C/C=C\C/C=C\C/C=C\C/C=C\CCC(=O)NCCSSC(C)(C)CNC(=O)c1cccnc1 [II-3, N-(2-((2-((4Z,7Z,10Z,13Z,16Z,19Z)-docosa-4,7,10,13,16,19-hexaenamido)ethyl)disulfanyl)-2-methylpropyl)nicotinamide]
IL-1β mRNA level: marked reduction

Reference: patent US10251845B2, “Fatty acid cysteamine conjugates and their use as activators of autophagy” (Catabasis Pharmaceuticals, Inc., priority 2014, dated 2019)
